We go through 16 molecules from patent publication US9637451B2, “Indole compound” (ASTELLAS PHARMA INC., priority 2014, dated 2017).

In one data set the target is T1, human MT2 receptor (Homo sapiens, UniProt P49286).
T1 construct: expressed in transfected cells
T1 sequence (P49286 1-362): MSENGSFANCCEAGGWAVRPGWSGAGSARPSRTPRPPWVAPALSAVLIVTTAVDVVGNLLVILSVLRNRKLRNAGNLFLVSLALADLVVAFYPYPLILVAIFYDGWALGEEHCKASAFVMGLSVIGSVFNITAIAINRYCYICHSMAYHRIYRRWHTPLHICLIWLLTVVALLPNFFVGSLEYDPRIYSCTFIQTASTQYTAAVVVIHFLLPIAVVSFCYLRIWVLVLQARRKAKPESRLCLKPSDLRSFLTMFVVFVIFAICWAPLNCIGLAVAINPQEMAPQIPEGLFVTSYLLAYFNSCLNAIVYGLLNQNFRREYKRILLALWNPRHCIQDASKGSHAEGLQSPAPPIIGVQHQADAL
Nature of the data set: Activation of human MT2 receptor in receptor-expressing cells, intracellular Ca2+ by FLIPR. Format: cell-based. The conditions noted are these: for EC50: HEK293 cells stably expressing human MT2 and Gq/i chimeric G protein, Ca2+ FLIPR; for Emax: maximum reaction by ramelteon taken as 100%.

The next data set addresses T2, human MT1 receptor (Homo sapiens, UniProt P48039).
T2 construct: expressed in transfected cells
Nature of the data set: Activation of human MT1 receptor in receptor-expressing cells, intracellular Ca2+ by FLIPR. Format: cell-based. The conditions noted are these: for EC50: HEK293EBNA1 cells stably expressing human MT1 and Gq/i chimeric G protein, Ca2+ FLIPR; for Emax: maximum reaction by ramelteon taken as 100%.

A short description of data set [1]: CSF-to-plasma unbound concentration ratio in rat after intravenous administration. Format: in vivo. The conditions noted are these: CSF and plasma (unbound), iv, 15 minutes after intravenous administration. The procedure:
A test compound (100 μg/mL, 50% acetonitrile solution) at 1% (v/v) with respect to the amount of the plasma was added to rat plasma, and dispensed to a sample for a supernatant and a sample for the plasma. The sample for a supernatant was ultracentrifuged at 436,000×g and 37° C. for 140 minutes, and the sample for the plasma was incubated at 37° C. for 140 minutes.
After 140 minutes, the sample for a supernatant after the ultracentrifugation and the sample for the plasma were taken, and mixed with the blank plasma or the blank supernatant, respectively. Acetonitrile including an internal standard material was added to each of the samples with the removal of protein, and after the centrifugation at 2150×g and 4° C. for 10 minutes the supernatant was injected into LC-MS/MS.
The unbound fraction in the plasma was calculated by the following equation.
To the plasma of a rat was added a test compound (0.2 mM, 50% acetonitrile solution) in an amount corresponding to 1% (v/v) of the plasma amount, and 200 μL of obtained plasma sample was filled into a plasma chamber of a RED device insert. A buffer chamber was filled with 350 μL of PBS, followed by performing equilibrium dialysis by stirring in a CO2 incubator at 37° C. for 16 hours. The sample after the completion of the equilibrium dialysis was recovered and the volume of the plasma sample was measured. To the plasma sample after the completion of the equilibrium dialysis were added PBS, a 20 mM ammonium formate buffer, and acetonitrile including an internal standard material. Similarly, to the PBS sample after the completion of the equilibrium dialysis was added a blank plasma, a 20 mM ammonium formate buffer, and acetonitrile including an internal standard material. This sample was left to stand at 4° C. for 30 minutes and then centrifuged 1500×g for 10 minutes, and the supernatant was measured by LC-MS/MS. The unbound fraction in the plasma was calculated by the following equation. fp=Cf/{(Cp−Cf)(V/V0)+Cf}
At 15 minutes after intravenously administration of the test compound to the rats, the plasma and CSF were collected. A 50% acetonitrile solution and an acetonitrile including internal standard material were added to the collected plasma or CSF. After centrifuging this sample at 4° C. and 2150×g for 10 minutes, the supernatant was measured by LC-MS/MS, and the total concentration of the test compound in the plasma (Cplasma,t) and the concentration of the test compound in CSF (CCSF) were obtained. The unbound concentration in the plasma (Cplasma,u) of the test compound and the CSF-to-plasma unbound concentration ratio (Kp,uu,CSF) of the test compound was calculated by the following equation.
(§1) The Kp,uu,CSF values and the Kp,brain values of ramelteon and some Example compounds of the present invention are shown in Table 4. Ex represents Example No. of the test compound. Unless otherwise specified, the Kp,uu,CSF was calculated using the fp values determined by an ultracentrifugation method. Further, N.T. represents Not Tested.
(Ramelteon represents the values of Kp,uu,CSF after 10 minutes after the intravenous administration. Further, the Kp,uu,CSF of Examples 37 and 38 was calculated using the fp values determined by an equilibrium dialysis method. In addition, N.D. denotes the concentration of the test compound in CSF that is no higher than the detection limit.)

The nature of data set [2]: Brain-to-plasma concentration ratio in rat after intravenous administration. Format: in vivo. The conditions noted are these: brain and plasma, 15 minutes after intravenous administration. The procedure:
At 15 minutes after intravenously administration of the test compound to the rats, the plasma and brain were collected. A 50% acetonitrile solution and an acetonitrile including internal standard material were added to the collected plasma. The collected brain was added to a 2-fold volume of PBS and homogenized. A 50% acetonitrile solution and an acetonitrile including internal standard material were added to the brain homogenate. The sample was centrifuged at 4° C. and 2150×g for 10 minutes, the supernatant was measured by LC-MS/MS, and the total concentration of the test compound in the brain (Cbrain) and the total concentration of the test compound in the plasma (Cplasma,t) were obtained. The brain-to-plasma concentrations ratio (Kp,brain) was calculated by the following equation.
as §1

Data set [3] has as its system isolated urethra in a rat. The settings on record: Patent Document 5; cited from earlier work.
The mark [4] stands for this setting: fp by ultracentrifugation method.
Setting [5] is: fp by equilibrium dialysis method.

T2 sequence (P48039 whole entry): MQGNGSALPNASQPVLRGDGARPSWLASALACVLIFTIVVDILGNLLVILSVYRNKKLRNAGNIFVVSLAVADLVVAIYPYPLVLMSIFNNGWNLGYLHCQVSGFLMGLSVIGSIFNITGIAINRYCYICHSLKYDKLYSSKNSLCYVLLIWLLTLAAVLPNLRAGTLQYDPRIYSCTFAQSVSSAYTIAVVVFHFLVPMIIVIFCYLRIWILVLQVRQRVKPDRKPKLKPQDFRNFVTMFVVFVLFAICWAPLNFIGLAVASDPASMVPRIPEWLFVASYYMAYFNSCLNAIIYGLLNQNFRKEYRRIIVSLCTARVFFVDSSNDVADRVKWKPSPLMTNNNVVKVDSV

On to `CCC(=O)NCCc1c(C)[nH]c2ccc(OCCn3ccc(C)n3)cc12` [Example 15, N-(2-{2-methyl-5-[2-(3-methyl-1H-pyrazol-1-yl)ethoxy]-1H-indol-3-yl}ethyl)propanamide], for which, on human MT2 receptor, the EC50 came to 12 nM and the Emax amounted to 110%. At human MT1 receptor, this molecule displayed an EC50 of 8.4 nM and an Emax of 106%. In data set [1] (setting [4]), the Kp uu at 0.25 h turned out to be 0.04.
Regarding `CNC(=O)NCCc1c(C)[nH]c2ccc(OCCOc3ccn(C)n3)cc12` [Example 10, 1-methyl-3-[2-(2-methyl-5-{2-[(1-methyl-1H-pyrazol-3-yl)oxy]ethoxy}-1H-indol-3-yl)ethyl]urea], the Kp at 0.25 h in data set [2] is 0.02. In addition, on human MT2 receptor, it took 21 nM to reach a half-maximal effect (EC50) and the Emax turned out to be 117%. For the same molecule, on human MT1 receptor, the EC50 is 8.3 nM and the maximal effect (Emax) was determined as 95%. Also, the Kp uu at 0.25 h in data set [1] (setting [4]) worked out at 0.07.
Turning to `CC(=O)NCCc1c(C)[nH]c2ccc(OCCOc3ccnc(C)c3)cc12` [Example 18, N-[2-(2-methyl-5-{2-[(2-methylpyridin-4-yl)oxy]ethoxy}-1H-indol-3-yl)ethyl]acetamide], the Kp at 0.25 h in data set [2] was determined as 0.03. On human MT2 receptor, the EC50 is 21 nM and the Emax turned out to be 123%. On human MT1 receptor, the EC50 was found to be 7.7 nM and the Emax was 89%. For the same molecule, in data set [1] (setting [4]), the Kp uu at 0.25 h was 0.11.
On to `CCC(=O)NCCc1c[nH]c2ccc(OCCOc3ccn(C)n3)cc12` [Example 8, N-[2-(5-{2-[(1-methyl-1H-pyrazol-3-yl)oxy]ethoxy}-1H-indol-3-yl)ethyl]propanamide], for which the Kp at 0.25 h in data set [2] is 0.04. For the same molecule, the results for the EC50 on human MT2 receptor and on human MT1 receptor were 12 nM and 9.1 nM, respectively. Also, the Emax on human MT2 receptor was 107%; on human MT1 receptor, 93%. In addition, in data set [1] (setting [4]), the Kp uu at 0.25 h is 0.08.
`CC(=O)NCCc1c(C)[nH]c2ccc(OCCOc3ccn(C)n3)cc12` [Example 7, N-[2-(2-methyl-5-{2-[(1-methyl-1H-pyrazol-3-yl)oxy]ethoxy}-1H-indol-3-yl)ethyl]acetamide]: the Kp at 0.25 h in data set [2] stood at 0.03. On human MT2 receptor, the EC50 was found to be 22 nM and the Emax is 125%. For the same molecule, at human MT1 receptor, the EC50 is 18 nM and the Emax was 90%. In data set [1] (setting [4]), the Kp uu at 0.25 h amounted to 0.14.
`CC(=O)NCCc1c[nH]c2ccc(OCCn3ccc(C(F)(F)F)n3)cc12` [Example 4, N-[2-(5-{2-[3-(trifluoromethyl)-1H-pyrazol-1-yl]ethoxy}-1H-indol-3-yl)ethyl]acetamide]: the Kp at 0.25 h in data set [2] amounted to 0.29. Further, the values for the EC50 on human MT2 receptor and at human MT1 receptor were 33 nM and 18 nM, respectively. For the same molecule, the Emax on human MT2 receptor and on human MT1 receptor was 102% each time. Moreover, the Kp uu at 0.25 h in data set [1] (setting [4]) is 0.11.
Take `CNC(=O)NCCc1c(C)[nH]c2ccc(OCCOc3ccc(OC)nc3)cc12` [Example 31, 1-[2-(5-{2-[(6-methoxypyridin-3-yl)oxy]ethoxy}-2-methyl-1H-indol-3-yl)ethyl]-3-methylurea]: the EC50 on human MT2 receptor stood at 28 nM; on human MT1 receptor, 1.4 nM. In addition, the Emax at human MT2 receptor is 88%; at human MT1 receptor, 104%. For the same molecule, the Kp uu at 0.25 h in data set [1] (setting [4]) is 0.01.
With `CC(=O)NC[C@H](C)c1c[nH]c2cc(Cl)c(OCCOc3ccn(C)n3)cc12` [Example 38, N-[(2R)-2-(6-chloro-5-{2-[(1-methyl-1H-pyrazol-3-yl)oxy]ethoxy}-1H-indol-3-yl)propyl]acetamide], the Kp at 0.25 h in data set [2] was found to be 0.02. Further, at human MT2 receptor, the response was half-maximal at 13 nM (EC50) and the Emax turned out to be 105%. At human MT1 receptor, this molecule displayed an EC50 of 2 nM and an Emax of 97%. Also, the Kp uu at 0.25 h in data set [1] (setting [5]) was 0.08.
As to `CCC(=O)NC[C@@H]1C[C@H]1c1cccc2c1CCO2` [tasimelteon], the “contraction of isolated urethra, increase of urethral pressure” value in data set [3] is “contract the isolated urethra in a rat to increase the urethral pressure of the rat”.
Turning to `COc1cc2c([C@@H](C)CNC(C)=O)c[nH]c2cc1Cl` [TIK-301], the “contraction of isolated urethra, increase of urethral pressure” value in data set [3] is on record as “contract the isolated urethra in a rat to increase the urethral pressure of the rat”.
For the molecule `CC(=O)NC[C@H](C)c1c[nH]c2cc(F)c(OCCOc3ccn(C)n3)cc12` [Example 37, N-[(2R)-2-(6-fluoro-5-{2-[(1-methyl-1H-pyrazol-3-yl)oxy]ethoxy}-1H-indol-3-yl)propyl]acetamide], the Kp at 0.25 h in data set [2] is 0.01. At human MT2 receptor, this molecule returned an EC50 of 7.1 nM and an Emax of 104%. Also, on human MT1 receptor, a half-maximal effect (EC50) was put at 2.1 nM and the Emax came to 105%. Also, the Kp uu at 0.25 h in data set [1] (setting [5]) was found to be 0.08.
On human MT2 receptor, `CC(=O)NCCc1c(C)[nH]c2cc(F)c(OCCOc3ccn(C)n3)cc12` [Example 13, N-[2-(6-fluoro-2-methyl-5-{2-[(1-methyl-1H-pyrazol-3-yl)oxy]ethoxy}-1H-indol-3-yl)ethyl]acetamide] came in with an EC50 of 7 nM and an Emax of 110%. Besides, on human MT1 receptor, the EC50 turned out to be 4.3 nM and the Emax was 105%. Further, in data set [1] (setting [4]), the Kp uu at 0.25 h stood at 0.03.
Turning to `CNC(=O)NCCc1c(C)[nH]c2ccc(OCCOc3ccnc(C)c3)cc12` [Example 9, 1-methyl-3-[2-(2-methyl-5-{2-[(2-methylpyridin-4-yl)oxy]ethoxy}-1H-indol-3-yl)ethyl]urea], in data set [2], the Kp at 0.25 h amounted to 0.01. Moreover, on human MT2 receptor, the response was half-maximal at 32 nM (EC50) and the Emax is 116%. Also, on human MT1 receptor, the EC50 was determined as 9.9 nM and the Emax turned out to be 84%.
As to `CNC(=O)NCCc1c[nH]c2ccc(OCCOc3ccc(OC)nc3)cc12` [Example 23, 1-[2-(5-{2-[(6-methoxypyridin-3-yl)oxy]ethoxy}-1H-indol-3-yl)ethyl]-3-methylurea], in data set [2], the Kp at 0.25 h stood at 0.03. On human MT2 receptor, this molecule registered an EC50 of 54 nM and an Emax of 68%. In addition, at human MT1 receptor, a half-maximal response (EC50) required 21 nM and the Emax was 87%. Moreover, the Kp uu at 0.25 h in data set [1] (setting [4]) was determined as 0.04.
On to `COc1ccc(OCCOc2ccc3[nH]cc(CCNC(C)=O)c3c2)cn1` [Example 5, N-[2-(5-{2-[(6-methoxypyridin-3-yl)oxy]ethoxy}-1H-indol-3-yl)ethyl]acetamide], for which, in data set [2], the Kp at 0.25 h turned out to be 0.089. At human MT2 receptor, this molecule registered a 50% effective concentration (EC50) of 150 nM and a maximum response (Emax) of 48%. At human MT1 receptor, this molecule displayed an EC50 of 13 nM and an Emax of 89%. In data set [1] (setting [4]), the Kp uu at 0.25 h was 0.1.
In the case of `CC(=O)NCCc1c[nH]c2ccc(OCCOc3cccc(C)n3)cc12` [Example 11, N-[2-(5-{2-[(6-methylpyridin-2-yl)oxy]ethoxy}-1H-indol-3-yl)ethyl]acetamide], the EC50 on human MT2 receptor came to 2.4 nM; at human MT1 receptor, 0.71 nM. The Emax on human MT2 receptor was 99%; at human MT1 receptor, 107%. Moreover, in data set [1] (setting [4]), the Kp uu at 0.25 h was found to be 0.05.

The term EC50 denotes the concentration at which the effect is half-maximal. In general, Emax refers to the size of the effect at its maximum, as opposed to the concentration needed. Broadly, the Kp is tissue or fluid exposure divided by exposure in the circulation.
